Like-named read-outs stand apart in the source and are kept apart here.
Legend:
[1] = tested on: mLF primary lung fibroblasts; experiment: Anti-senescent cytotoxicity, senescent vs proliferating mLF; assay type: cell-based, Mouse; settings: for IC50: Mus musculus, Primary lung fibroblast
Procedure: For generation senescent human neonatal dermal fibroblasts (NDFs) and adult rat dermal fibroblasts (RDFs), cells are treated at ˜10 ug/ml bleomycin for 3 days (for bleomycin-induced senescence) or irradiated once at 20 Gy using a gamma irradiator (Cs source), followed by at least 7 day recovery in fresh medium for induction of senescence. Senescent and non-senescent (proliferating) cells for each cell line are plated into 384-w plate, followed by 72 hour exposure to a dose titration of compounds. Viability measurements are estimated using the resazurin viability assay. Using GraphPad Prism 5, the IC50 values are calculated from the non-linear regression of log-transformed compound concentrations versus dose-response normalized to background and non-treated controls.
Anti-senescent selectivity is observed in primary human dermal fibroblasts (NDFs) induced to senescence via genotoxic stress, oxidative stress and replicative stress. In addition, human, rat and mouse cells senesced via bleomycin and irradiation all show sensitivity towards A1.1 treatment compared to A1.1-treated naïve cell controls.

[2] = tested on: B16 melanoma lung metastasis in C57BL/6 mice; experiment: Senescence-enhanced B16 lung metastasis model; assay type: in vivo, mouse
Description: FIG. 4. Efficacy of A1.1 analogs in the senescence-enhanced B16 metastasis model. (A) Quantification of metastatic nodules by H&E morphometric analysis, and the resulting reduction in tumor burden (%) compared to vehicle control. (B) Quantitation morphometric analysis of lungs excised from irradiated mice treated with analogs of A1.1 post-inoculation of B16 cell intravenously, along with quantitation of morphometric analysis, are provided. (C) In vitro testing of A1.1 and analogs against the growth and viability of B16 cells, as assessed by the resazurin viability assay after 72 hour exposure to compounds compared to non-treated controls.
The role of senescent cells in the promotion of metastatic potential of cancer cells has also been described [Patent WO 2013090645 A1; Campisi, J. (2015). Cancer and Aging: Rival Demons]. […] To test the efficacy of A1.1, irradiated (11 Gy followed by bone-marrow transplantation) and non-irradiated C57BL/6 mice received B16 melanoma cells via tail vein injection were subsequently (72 hours later) administered A1.1 (20 mg/kg) intraperitoneally once a day for 5 consecutive days.
Synthesized analogs were also tested in vivo, to assess whether optimized structures are capable of showing activity against senescence-mediated B16 lung metastasis in irradiated mice (FIG. 4B). Analogs A1.1, A1.12, A1.13, A1.14, A1.15, and A1.6 were administered at 20 mg/kg intraperitoneally for 5 consecutive days. In addition to A1.1, treatment with analogs A1.12, A1.14 and A1.15 at 20 mg/kg reduced the metastatic burden in the lungs of irradiated mice by more than 2-fold.

[3] = tested on: mSQ primary adipose-derived mesenchymal stromal cells; experiment: Anti-senescent cytotoxicity, senescent vs proliferating mSQ; assay type: cell-based, Mouse; settings: for IC50: Mus musculus
[4] = tested on: chronologically aging mice; experiment: Survival and frailty index of chronologically aging mice; assay type: in vivo, mouse; settings: for survival rates vs control groups: OT-82: after 6 courses, 111 weeks of age, asenins: treated weeks 77-97, at 112 weeks of age
Procedure: FIG. 11. OT-82 effects on survival and frailty index of old mice. (A) Male and female mice were treated with OT-82 or with vehicle alone as a negative control. Survival was measured over the course of six treatments.
FIG. 12. Effects of asenins TA-3899 and TA-4812 on survival and frailty index of old mice. Results are provided on a background of FI of mice of the similar age, aged normally without any treatments (black color). Difference between FI of males receiving 3899 and intact mice is statistically significant (p=0.02).
Frailty Index (FI) was determined for individual mice as described previously (Antoch et al. Aging. 2017; 9: 1-12) using a 26 week-old group as a “young mouse” reference. For each mouse, various parameters were measured. These parameters include non-invasive measurements, including age, body weight, grip strength, diastolic blood pressure, and tail blood flow. Additional blood chemistry measurements were also determined, including white blood cell count, neutrophil count, neutrophil percentage, lymphocyte percentage, monocyte percentage, eosinophil percentage, red blood cell count, hemoglobin, hematocrit, mean corpuscular volume, mean corpuscular hemoglobin, mean corpuscular hemoglobin concentration, platelet count, and mean platelet volume. For each parameter mean value and standard deviation were calculated. Animals differing by more than one standard deviation (STDEV) from mean value in any single parameter were excluded from the reference group. Values for each measured parameter were compared with corresponding values for the reference group and assigned a score. The number of deficits an individual mouse expressed was calculated as a ratio of total number of parameters measured and this value is referred to as the frailty index.
Asenins TA-3899 and TA-4812 were evaluated for their effects on survival and frailty index in a model of chronologic aging mice. Treatment lasted for 20 weeks (weeks 77-97 of age). […] Frailty index of males was measured at week 109.

NF-κB = NF-κB luciferase reporter in HT1080 cells; assay type: cell-based; settings: HT1080 cells carrying IPTG-inducible p21
[5] = tested on: p16(Ink4a) expression in macrophages; experiment: Immunomodulators in vivo in p16Ink4a/Luc mice bearing alginate-encapsulated cells; design: species or system mouse; settings: for in vivo bioluminescence / elevated p16(Ink4a) expression: after 10 day induction of bioluminescence, Poly(I:C) 2 and 10 mg/kg intraperitoneally
Procedure: Mice were injected intraperitoneally with a 200 μl solution of 15 mg/mL D-luciferin potassium salt (Syd Labs; Boston, Mass.) in D-PBS without calcium and magnesium. At 10 minutes post-injection, isoflurane-anesthetized mice were placed into the IVIS Spectrum in vivo bioluminescent imaging system (PerkinElmer; Waltham, Mass.) for detection of luciferase activity (60-second exposure). Bioluminescence in p16^LUC mice was quantified as total flux (p/s) of luminescent signal from the abdomen using via Living Image® software.
We next investigated whether p16(Ink4a) expression was susceptible to M1-mediated regulation in vivo using immunotherapeutic agent Poly(I:C). Upon intraperitoneal injection of alginate-encapsulated cells, p16^Iak4a/Luc mice accumulate luciferase-positive macrophages that can be monitored in vivo via the IVIS imaging system. […] Further, treatment with Poly(I:C) had no effect on β-galactosidase activity nor viability (>95%) of lavage cells, consistent with in vitro data.

CCOC(=O)c1sc(SCc2ccccc2)c2c1CC(c1ccc(OC)cc1)C/C2=N\O (stereo not drawn) [Example A1.1]
IC50 ([1]; light or radiation study, mLF, senescence induction: Irradiation, read-out: Activity against Senescent Cells (IC50; uM)): 4 µM
IC50 ([1]; mLF proliferating, read-out: Activity against Proliferating Cells (IC50; uM)): 10.6 µM
IC50 ([1]; mLF, senescence induction: Bleomycin, read-out: Activity against Senescent Cells (IC50; uM)): 7.1 µM
Selectivity (Prolif/Sen) ([1]; mLF, Bleomycin): 1.5
Selectivity (Prolif/Sen) ([1]; mLF, Irradiation): 2.7
tumor burden in non-irradiated animals ([2]; 20 mg/kg intraperitoneally, 5 consecutive days, non-irradiated mice): did not affect
IC50 ([3]; light or radiation study, mSQ, senescence induction: Irradiation, read-out: Activity against Senescent Cells (IC50; uM)): 9.9 µM
IC50 ([3]; mSQ proliferating, read-out: Activity against Proliferating Cells (IC50; uM)): 14.7 µM
IC50 ([3]; mSQ, senescence induction: Bleomycin, read-out: Activity against Senescent Cells (IC50; uM)): 6.7 µM
Selectivity (Prolif/Sen) ([3]; mSQ, Bleomycin): 2.2
Selectivity (Prolif/Sen) ([3]; mSQ, Irradiation): 1.5

COc1ccc(C2CC(=NO)c3c(SCc4ccccc4)sc(C(=O)NCc4cccc(F)c4)c3C2)cc1 (stereo not drawn) [Example A1.6, 3-(Benzylthio)-N-(3-fluorobenzyl)-4-(hydroxyimino)-6-(4-methoxyphenyl)-4,5,6,7-tetrahydrobenzo[c]thiophene-1-carboxamide]
survival rates vs control groups [4]: no statistical significance
reduction of B16 metastatic load in the lungs of irradiated mice vs vehicle ([2]; 20 mg/kg intraperitoneally once a day for 5 consecutive days, irradiated (11 Gy) C57BL/6 mice): did not show a substantial decrease

O=C(NCCCc1cn[nH]c1)c1ccc(-c2ccncc2)c(C#Cc2ccc(F)cc2)c1 [OT-82]
survival rates vs control groups [4]: no effects on survival rates
frailty index (FI) of males ([4]; OT-82, chronically aged mice): positive effects
survival of treated males ([4]; after 6 courses of treatment, 111 weeks of age (55% in vehicle control group)): 45%
survival of treated females ([4]; after 6 courses of treatment, 111 weeks of age (60% in vehicle group)): 65%
basal and inducible activity of NF-κB (NF-κB): inhibits both basal and inducible activity

IFN-α
in vivo bioluminescence / elevated p16(Ink4a) expression [5]: abrogates

Poly(I:C)
in vivo bioluminescence / elevated p16(Ink4a) expression [5]: complete abrogation of signal
viability of lavage cells ([5]; mouse, in vivo): > 95%
β-galactosidase activity of lavage cells ([5]; mouse, in vivo): no effect
proportion of CD11b+ F4/80+ macrophages ([5]; peritoneal lavage): no difference
decrease in luciferase activity per lavage cell vs non-treated controls ([5]; peritoneal lavage cells): > 6 fold

From patent US20200123127A1, “REMOVAL OF SENESCENCE-ASSOCIATED MACROPHAGES” (EVERON BIOSCIENCES, INC., priority 2016, published 2020)
